Laboratory results published in patent US12629355B2, “Drug inhibitor against migration and invasion of cancer cells and methods of treating against metastasis of cancer cells” (HOWARD UNIVERSITY, priority 2019, dated 2026).

Tests used:
Format in all cases: cell-based
RACK1 protein = biological target: T1, RACK1 protein (Homo sapiens, UniProt P63244); experiment: RACK1 protein expression, western blot (FIG. 7); conditions: MCF-7 cells, 6 days, compound added on day 1 and day 4
T1 construct: endogenous in cells; host or cells: MCF-7
Description: As to FIG. 7, MCF-7 cells were washed three times in PBS after growth on MEM media for 6 days. The indicated compounds were added on day 1 and day 4 of the treatment. The cells were lysed in the lysis buffer (Cell Signaling, MA) supplemented with protease inhibitor cocktail (Sigma-Aldrich), Protein Tyrosine phosphatase inhibitors (Santa Cruz Biotechnology, TX), and N-Ethylamaleimide (Sigma-Aldrich) at 25 mM to inhibit de-sumoylation. Twenty five micrograms of proteins were loaded on the BIORAD company's 4-12% precast polyacrylamide gel, transferred to a PVDF membrane and then blocked with 5% non-fat milk (Biorad) for one hour, washed and incubated overnight at 4 C with the RACK1 antibody (1:2500 dilution) purchased from the Santa Cruz Biotechnology. After overnight incubation, the membrane was washed 3× in PBST and then incubated with a horseradish peroxidase-coupled mouse secondary antibody for an hour at room temperature and the bands were detected with enhanced chemiluminescence (Pierce, Rockford, IL, USA), according to standard methods. […] This served as the loading control.

U251 cells [1] = experiment: Wound migration assay (FIG. 9); conditions: TGF, 0 h and 14 h after wounding
From the text: During tumorigenesis, the epithelial-mesenchymal transition (EMT) plays a crucial role in migration and invasion of various cancers. EMT plays an essential role in tumor invasiveness and metastasis in cancer progression. Invasiveness (metastasis) of cancers is associated with a critical physiological process in which epithelial cells transition to mesenchymal transition or differentiation (EMT). Epithelial cells are not regarded as motile. However, in EMT, epithelial cells lose their epithelial characteristics, including their polarity (apical-basal polarity) and specialized cell-cell junctions, to acquire motility (migratory ability) behavior to become invasive mesenchymal cells, (e.g., Qu et al., Int. J. Clin. Exp. Med., 10 (6): 9019-9028 (2017); Xu et al., Cell Res. 19:156-172 (2009)). The motile mesenchymal cells can move (migrate) into surrounding tissue, even remote tissue. […] A wound was created by sliding a tip of a plastic pipette on the surface of almost 100 percent confluent cells and the size of the wound was measured at 0 h and after 14 h of wound creation. […]
In FIG. 10 and FIG. 11, U251 cells were plated in six-well plates and were allowed to reach about 90%-100% density. […] The size of wound was measured under a microscope at 0 and 14 h after wounding.

U251 cells [2] = experiment: Transwell invasion assay (FIG. 10); conditions: serum free media with TGF in upper chamber, about 14 hours
Description: A transwell assay is conducted as a means for testing for invasion. A transwell invasion assay can be used to test the invasive potential of cells in response migration inducers or inhibitors. This assay is also known as modified Boyden chamber assay. During this assay, cells are placed on the upper layer of a cell culture insert with permeable membrane and a solution containing the test agent is placed below the cell permeable membrane. Following an incubation period (3-18 hours) at 37° C. in a humidified chamber, the cells that have stuck during the migration towards the lower chamber through the membrane are stained and counted. […] Collectively, these findings (as shown in FIG. 9 and FIG. 10) indicate that administering a representative compound (SD 29-14) played a significant functional role in the regulation of U251 glioma cell migration and invasion.
In measuring cell invasion, 12-well transwell chambers (Corning Inc., Kennebunk, ME) were used with 6.5 mm inserts and 8.0 μm membrane pore size. […] Invasive cells on the bottom surface were fixed with 4% paraformaldehyde for 15 min and stained with 0.2% crystal violet for 15 minutes and the cells were counted and photographed under a light microscope.

U251 cells [3] = experiment: Migration through Matrigel, cell shape differentiation (FIG. 16-19)
Description: Within 24 h of the placement of the cells on the matrigel, the cells were able to migrate through the matrigel and were captured on the glass coverslip beneath the matrigel layer.
The cells are labeled with an antibody (pY397-FAK) and detected with a rabbit-TRITC secondary antibody. The antibody staining allowed to visualize the cells clearly but the autofluorescence of the Matrigel made it hard to pinpoint the precise localization of the pY397-FAK protein.
As to FIG. 19, and related methods, freshly harvested 10^5 cells in MEM no serum media+/−drugs (500 μl) placed on coverslip covered with 200 μl of 1:12 matrigel diluted with MEM serum free media in a 24 well plate. After 24 h, the matrigel was carefully removed by tilting wells and drawing from the tilted side of the wells and washing thoroughly with PBS to remove the matrigel completely (all crumbs removed as their auto fluorescence makes background during imaging) and then were fixed 10 minutes with 4% paraformaldehyde. Washed 2× with PBS; use 5% Urea to treat the cells at 95 C for 10 minutes, wash 2×PBS; permeabilize with 0.5% saponin in PBS; block cells with 3% BSA in PBST for 30 min; Overnight Primary antibody (ThermoFisher Cat #70025-pFAK397 rabbit at 1:250) in 1% BSA in PBST at 4 C, secondary (Rabbit-TRITC) also 1% BSA in PBST for one hour (1:1000).

SMILES: Nn1c(S)nnc1-c1cc(Cl)cc(Cl)c1 [SD 29-14]
- RACK1 protein expression (RACK1 protein): significant of RACK1 proteins
- cell migration into wound (U251 cells [1]): the cells failed to migrate to cover the clear area
- cells on the membrane (invasion) (U251 cells [2]): hardly any cells were observed on the membrane
- filipodia, invadopodia, lamellipodia structures and cell-cell adhesion during invasion through matrigel (U251 cells [3]; 10 μM, 24 h (FIG. 17)): those structures where inhibited and the cells mostly maintained their cell-cell adhesion
- filipodia, invadopodia, lamellipodia structures and cell-cell adhesion during invasion through matrigel (U251 cells [3]; 100 μM, 24 h (FIG. 18)): those structures where inhibited and the cells mostly maintained their cell-cell adhesion
